Data on 25 molecules can be found in paper PMC7663597, “Structure–Activity Relationship of Aloperine Derivatives as New Anti–Liver Fibrogenic Agents” (Molecules, 2020).

The subject of one data set is COL1A1 promotor. The data set can be described thus: COL1A1 promotor luciferase reporter gene assay in TGF-β1-treated LX-2 cells. In kind it is cell-based, human. The following applies: for inhibition at 40 µM / inhibition at 80 µM: Homo sapiens, LX-2, 24 h; for inhibition at 40 µM: 24 h with TGF-β1, read-out: Inhibition Percentage 40 μM (inhibition rate of COL1A1 promotor's activity); for inhibition at 80 µM: 24 h with TGF-β1, read-out: Inhibition Percentage 80 μM (inhibition rate of COL1A1 promotor's activity). As for the experimental part:
A single luciferase reporter gene detection model was applied to evaluate the inhibitory effects of all target compounds on the expression of COL1A1 promotor in human hepatic stellate LX-2 cells at the concentrations of 40 and 80 μM, taking EGCG as the positive control. The LX-2 cell lines were transfected with COL1A1 promotor luciferase plasmid pGL4.17-COL1A1P for 24 h, then simultaneously treated with TGF-β1 and a tested compound for 24 h.
Cells were maintained on Dulbecco’s Modified Eagle’s medium (DMEM), laid on 96-well plate. DMEM medium was supplemented with 10% fetal bovine serum (FBS) at 37 °C humidified atmosphere with 5% CO2. Furthermore, serum-free culture was required until the cells were confluent at 90−95%. 24 h later the cells were treated with a tested compound (40 and 80 μM) for 24 h. The COL1A1 promotor activity was detected by the Bright-Glo luciferase assay system. Alternatively, to test the acute effects of compound on luciferase activity, 24 h later the cells were lysed and the lysate was treated with a tested compound (80 μM) for 2 h, then the luciferase was detected by the Bright-Glo luciferase assay system (Promega, Madison, WI, USA).
For orientation: In a reporter assay the amount or activity of a reporter protein is the signal.

Counter-ions that a name gives are not always drawn. Marks after values point to notes of the source that are not given here.

As usually defined, the inhibition is how much of the control response was suppressed. The melting point is the temperature of the solid-liquid transition. In turn, `O=C(CN1CCCC2=C[C@H]3C[C@H](CN4CCCC[C@H]34)[C@@H]21)Nc1ccc(F)cc1` [4e, 12N-N′-(4-Fluorophenyl)carbamoylmethyl aloperine] came in with a melting point of 119 to 121 °C. Moreover, in the data set with COL1A1 promotor, the inhibition at 40 µM came to 21.4 ± 1.5% and the inhibition at 80 µM turned out to be 26.5 ± 0.5%.

With `C1=C2CCCN[C@H]2[C@@H]2C[C@H]1[C@H]1CCCCN1C2` [compound 1, Aloperine], in the data set on COL1A1 promotor, the inhibition at 40 µM is 4.7 ± 3.7% and the inhibition at 80 µM came out at 2.6 ± 5.2%.

Regarding `O=C(CN1CCCC2=C[C@H]3C[C@H](CN4CCCC[C@H]34)[C@@H]21)NS(=O)(=O)c1ccc(Br)c(C(F)(F)F)c1` [7c, 12N-N′-(4-Bromo-3-trifluoromethylbenzenesulfonyl)carbamoylmethyl aloperine], the melting point was 79 to 81 °C. In the data set on COL1A1 promotor, the inhibition at 40 µM came to 32.9 ± 3.4% and the inhibition at 80 µM came out at 31.8 ± 3.1%.

`O=C(CN1CCCC2=C[C@H]3C[C@H](CN4CCCC[C@H]34)[C@@H]21)NS(=O)(=O)c1ccc2ccccc2c1` [7d]: the melting point fell in the range of 93 to 95 °C. In the data set with COL1A1 promotor, the inhibition at 40 µM is 18.8 ± 5.2% and the inhibition at 80 µM is 9.4 ± 3.7%.

The molecule `CCCCS(=O)(=O)NCC(=O)N1CCCC2=C[C@H]3C[C@H](CN4CCCC[C@H]34)[C@@H]21` [10b, 12N-N′-n-Butylsulfonylaminoacetyl aloperine] returned a melting point of 98 to 100 °C. In the data set with COL1A1 promotor, the inhibition at 40 µM turned out to be 41.1 ± 9.6% and the inhibition at 80 µM stood at 23.7 ± 22.7%.

Regarding `O=C(CN1CCCC2=C[C@H]3C[C@H](CN4CCCC[C@H]34)[C@@H]21)Nc1ccccc1` [4d, 12N-N′-Phenylcarbamoylmethyl aloperine], the melting point lay in the range of 66 to 68 °C. Also, in the data set on COL1A1 promotor, the inhibition at 40 µM turned out to be 18.6 ± 8.6% and the inhibition at 80 µM came out at 28.3 ± 2.8%.

The molecule `O=C(CNS(=O)(=O)c1cccc(C(F)(F)F)c1)N1CCCC2=C[C@H]3C[C@H](CN4CCCC[C@H]34)[C@@H]21` [10e, 12N-N′-m-Trifluoromethylbenzenesulfonylaminoacetyl aloperine] came in with a melting point of 91 to 93 °C. In the data set with COL1A1 promotor, the inhibition at 40 µM worked out at 29.7 ± 5.1% and the inhibition at 80 µM came out at 26.7 ± 21.3%.

`O=C(CN1CCCC2=C[C@H]3C[C@H](CN4CCCC[C@H]34)[C@@H]21)NC1CCOCC1` (as salt: hydrochloride) [4b, 12N-N′-(Tetrahydro-2H-pyran-4-yl)carbamoylmethyl aloperine hydrochloride] showed a melting point of 199 to 201 °C.

`O=C(CN1CCCC2=C[C@H]3C[C@H](CN4CCCC[C@H]34)[C@@H]21)Nc1cccc2ncccc12` [4l, 12N-N′-(5-Quinolyl)carbamoylmethyl aloperine] had a melting point of 74 to 76 °C. In the data set with COL1A1 promotor, the inhibition at 40 µM amounted to 31.5 ± 2.6% and the inhibition at 80 µM turned out to be 22.4 ± 16.1%.

For `O=C(O[C@@H]1Cc2c(O)cc(O)cc2O[C@@H]1c1cc(O)c(O)c(O)c1)c1cc(O)c(O)c(O)c1` [EGCG, reference compound], the “Inhibition Percentage (inhibition rate of COL1A1 promotor's activity)” value in the data set on COL1A1 promotor (at the concentration of 25 μM (positive control)) is 27.5 ± 7.9^e %.

Turning to `CCNC(=O)CN1CCCC2=C[C@H]3C[C@H](CN4CCCC[C@H]34)[C@@H]21` [4a, 12N-N′-Ethylcarbamoylmethyl aloperine], the melting point fell in the range of 69 to 71 °C. For the same molecule, in the data set with COL1A1 promotor, the inhibition at 40 µM was determined as 7.1 ± 25.6% and the inhibition at 80 µM was 33.1 ± 1.6%.

The molecule `O=C(CN1CCCC2=C[C@H]3C[C@H](CN4CCCC[C@H]34)[C@@H]21)N1CCCC1` [4o, 12N-N′-(1-Pyrrolidinyl)carbamoylmethyl aloperine] came in with a melting point of 78 to 80 °C. Moreover, in the data set with COL1A1 promotor, the inhibition at 40 µM worked out at 16.5 ± 9.8% and the inhibition at 80 µM turned out to be 36.7 ± 9.9%.

On to `CN(C(=O)CN1CCCC2=C[C@H]3C[C@H](CN4CCCC[C@H]34)[C@@H]21)c1ccccc1` [4m], for which the melting point lay within 73 to 75 °C. Also, in the data set on COL1A1 promotor, the inhibition at 40 µM was found to be 19.9 ± 5.2% and the inhibition at 80 µM amounted to 34.6 ± 2.5%.

Take `O=C(CNS(=O)(=O)c1cccc(Br)c1)N1CCCC2=C[C@H]3C[C@H](CN4CCCC[C@H]34)[C@@H]21` [10d, 12N-N′-m-Bromobenzenesulfonylaminoacetyl aloperine]: the melting point lay in the range of 101 to 103 °C. In the data set on COL1A1 promotor, the inhibition at 40 µM came to 28.5 ± 12.3% and the inhibition at 80 µM was 27.1 ± 10.1%.

The molecule `Cc1cc(NC(=O)CN2CCCC3=C[C@H]4C[C@H](CN5CCCC[C@H]45)[C@@H]32)cc(C)c1C` [4k, 12N-N′-(3,4,5-Trimethylphenyl)carbamoylmethyl aloperine] showed a melting point of 183 to 185 °C. Also, in the data set with COL1A1 promotor, the inhibition at 40 µM amounted to 50.1 ± 6.9% and the inhibition at 80 µM came out at 70.7 ± 1.5%.

`O=C(CN1CCCC2=C[C@H]3C[C@H](CN4CCCC[C@H]34)[C@@H]21)NS(=O)(=O)c1ccccc1` [7a, 12N-N′-Benzenesulfonyl carbamoylmethyl aloperine] displayed a melting point of 113 to 115 °C. Besides, in the data set with COL1A1 promotor, the inhibition at 40 µM was 21.5 ± 4.3% and the inhibition at 80 µM worked out at 17.1 ± 6.3%.

As to `O=C(CN1CCCC2=C[C@H]3C[C@H](CN4CCCC[C@H]34)[C@@H]21)NC12CC3CC(CC(C3)C1)C2` [4c, 12N-N′-Adamantylcarbamoylmethyl aloperine], the melting point is 176 to 178 °C. Also, in the data set with COL1A1 promotor, the inhibition at 40 µM stood at 23.7 ± 7.7% and the inhibition at 80 µM turned out to be 39.2 ± 1.2%.

With `O=C(CN1CCCC2=C[C@H]3C[C@H](CN4CCCC[C@H]34)[C@@H]21)NS(=O)(=O)c1cccc(C(F)(F)F)c1` [7b, 12N-N′-3-Trifluoromethylbenzenesulfonyl carbamoylmethyl aloperine], the melting point lay within 105 to 107 °C. Also, in the data set on COL1A1 promotor, the inhibition at 40 µM was 23.5 ± 13.5% and the inhibition at 80 µM was 20.2 ± 1.9%.

`O=C(CN1CCCC2=C[C@H]3C[C@H](CN4CCCC[C@H]34)[C@@H]21)NC1CCOCC1` [4b, 12N-N′-(Tetrahydro-2H-pyran-4-yl)carbamoylmethyl aloperine hydrochloride]: in the data set with COL1A1 promotor, the inhibition at 40 µM came to 19 ± 3.8% and the inhibition at 80 µM is 29.8 ± 10%.

Consider `Cc1cccc(NC(=O)CN2CCCC3=C[C@H]4C[C@H](CN5CCCC[C@H]45)[C@@H]32)c1` [4f, 12N-N′-(3-Methylphenyl)carbamoylmethyl aloperine], for which the melting point was in the range of 40 to 42 °C. Besides, in the data set on COL1A1 promotor, the inhibition at 40 µM is 21.2 ± 0.4% and the inhibition at 80 µM came to 33.8 ± 8%.

For the molecule `O=C(CNS(=O)(=O)c1ccccc1)N1CCCC2=C[C@H]3C[C@H](CN4CCCC[C@H]34)[C@@H]21` [10c, 12N-N′-Benzenesulfonylaminoacetylaloperine], the melting point was 63 to 65 °C. In the data set with COL1A1 promotor, the inhibition at 40 µM worked out at 23.7 ± 8.3% and the inhibition at 80 µM was found to be 20.2 ± 6.4%.

In the case of `O=C(CN1CCCC2=C[C@H]3C[C@H](CN4CCCC[C@H]34)[C@@H]21)Nc1cccc(OC(F)(F)F)c1` [4g, 12N-N′-(m-Trifluoromethoxyphenyl)carbamoylmethyl aloperine], the melting point lay within 50 to 52 °C. Moreover, in the data set on COL1A1 promotor, the inhibition at 40 µM worked out at 67.8 ± 14.9% and the inhibition at 80 µM stood at 95.5 ± 5.5%.

With `COC(=O)c1ccc(C)c(NC(=O)CN2CCCC3=C[C@H]4C[C@H](CN5CCCC[C@H]45)[C@@H]32)c1` [4j, 12N-N′-(2-Methyl-5-methoxycarbonylphenyl)carbamoylmethyl aloperine], the melting point lay in the range of 75 to 77 °C. In the data set with COL1A1 promotor, the inhibition at 40 µM is 3.8 ± 6.1% and the inhibition at 80 µM is 32.4 ± 2.7%.

Molecule `CCS(=O)(=O)NCC(=O)N1CCCC2=C[C@H]3C[C@H](CN4CCCC[C@H]34)[C@@H]21` [10a, 12N-N′-Ethylsulfonylaminoacetyl aloperine] yielded a melting point of 145 to 147 °C. In addition, in the data set with COL1A1 promotor, the inhibition at 40 µM came to 34 ± 7% and the inhibition at 80 µM is 34.9 ± 14.7%.

In turn, `O=C(CNS(=O)(=O)c1cccc(OC(F)(F)F)c1)N1CCCC2=C[C@H]3C[C@H](CN4CCCC[C@H]34)[C@@H]21` [10f, 12N-N′-m-Trifluoromethoxybenzenesulfonylaminoacetyl aloperine] displayed a melting point of 81 to 83 °C. For the same molecule, in the data set with COL1A1 promotor, the inhibition at 40 µM was found to be 43.4 ± 15.9% and the inhibition at 80 µM amounted to 41.4 ± 7.4%.
